The values below come from ChEMBL document CHEMBL1201862, “PubChem BioAssay data set” (2004).

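Five concentrations, 48 hours, 96-well plates. GI50 marks 50% less growth.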 Active and inactive are the calls of the source. Cut-off read from the data, not from the text of the source: active = GI50 up to about 1.1 µM and inactive = higher.

Holding throughout (test): growth of human tumour cells (NCI), 48 h
The subject of test [1] is SK-MEL-5.
The test system of test [2] is NCI-H226.
The subject of test [3] is A498.
The test system of test [4] is SW-620.
For test [5], the system named is NCI-H460.
In test [6] the test system is LOX IMVI.
In test [7] the test system is KM12.
The subject of test [8] is HCT-15.
The test system of test [9] is M14.
The subject of test [10] is NCI-H23.
Test [11] deals with K562.
The subject of test [12] is RPMI-8226.
The test system of test [13] is EKVX.
The subject of test [14] is RXF 393.
Test [15] has as its system UACC-257.
In test [16] the test system is NCI/ADR-RES.
Test [17] relates to Hs-578T.
Test [18] has as its system HCT-116.

Take `Nc1nc(N)c2nc(CNc3ccc(C(=O)O)cc3)[nH]c2n1`: the GI50 in test [1], in test [2], in test [3], in test [4], in [5] and in [6] was > 100 µM (inactive) throughout. Further, the GI50 in test [7] was > 100 µM (inactive); in test [8], above 100 µM; in test [9], > 100 µM (inactive); in [10] it was > 100 µM (inactive); in test [11] it was > 100 µM (inactive); in [12], > 100 µM (inactive). The GI50 in test [13], in [14], in test [15], in test [16], in test [17] and in [18] was > 100 µM (inactive) each time.

Take `COc1cc(C(=O)OC2CC34CCNC35CC(OC5(OC)C2O)c2cc3c(cc24)OCO3)ccc1O` (configuration not stated): the GI50 in test [1], in test [2], in test [3], in [4], in test [5] and in test [6] was > 100 µM (inactive) in each case. The GI50 in test [7] is > 100 µM (inactive); in test [8] it was above 100 µM; in test [9], > 100 µM (inactive); in test [10] it was > 100 µM (inactive); in test [11], > 100 µM (inactive); in test [12], > 100 µM (inactive). In addition, the GI50 in [13], in test [14], in [15], in test [16], in [17] and in test [18] was > 100 µM (inactive) throughout.

Take `O=C1OC(c2ccccc2)=N/C1=C\c1ccc(F)cc1`: the GI50 was 80.5 µM (inactive) in test [1]; 35.6 µM (inactive) in test [2]; > 100 µM (inactive) in test [3]; > 100 µM (inactive) in test [4]; > 100 µM (inactive) in test [5]; 38.9 µM (inactive) in test [6]. Also, the GI50 in test [7] was > 100 µM (inactive); in [8] it was above 100 µM; in test [9], > 100 µM (inactive); in test [10], > 100 µM (inactive); in test [11], > 100 µM (inactive); in test [12], 38.9 µM (inactive). Moreover, the GI50 in test [13] was > 100 µM (inactive); in test [14], > 100 µM (inactive); in test [15] it was > 100 µM (inactive); in [16], 46.6 µM (inactive); in test [17], > 100 µM (inactive); in [18], > 100 µM (inactive).

`Cc1cnc2nc(-c3ccc(F)cc3)cc(O)c2c1`: the GI50 in test [1] was 26.6 µM (inactive); in [2], 27.1 µM (inactive); in test [3] it was 25.4 µM (inactive); in [4], 19 µM (inactive); in test [5], 19.1 µM (inactive); in test [6], 40.4 µM (inactive). In addition, the GI50 in test [7] is 5.66 µM (inactive); in test [8], 7.66 µM; in test [9], 34.6 µM (inactive); in test [10], 41.3 µM (inactive); in [11], 4.52 µM (inactive); in test [12], 21.1 µM (inactive). Besides, the GI50 in test [13] is 30.9 µM (inactive); in [14], 31.3 µM (inactive); in test [15], > 75.2 µM (inactive); in [16], 27.2 µM (inactive); in [17], 24.1 µM (inactive); in test [18], 18.7 µM (inactive).
